Target: T1, Full-length USP19 (Homo sapiens, UniProt O94966)
T1 construct: Full-length USP19 was purchased from Boston Biochem (E-576); purchased Boston Biochem E-576
T1 sequence (O94966 1-1318): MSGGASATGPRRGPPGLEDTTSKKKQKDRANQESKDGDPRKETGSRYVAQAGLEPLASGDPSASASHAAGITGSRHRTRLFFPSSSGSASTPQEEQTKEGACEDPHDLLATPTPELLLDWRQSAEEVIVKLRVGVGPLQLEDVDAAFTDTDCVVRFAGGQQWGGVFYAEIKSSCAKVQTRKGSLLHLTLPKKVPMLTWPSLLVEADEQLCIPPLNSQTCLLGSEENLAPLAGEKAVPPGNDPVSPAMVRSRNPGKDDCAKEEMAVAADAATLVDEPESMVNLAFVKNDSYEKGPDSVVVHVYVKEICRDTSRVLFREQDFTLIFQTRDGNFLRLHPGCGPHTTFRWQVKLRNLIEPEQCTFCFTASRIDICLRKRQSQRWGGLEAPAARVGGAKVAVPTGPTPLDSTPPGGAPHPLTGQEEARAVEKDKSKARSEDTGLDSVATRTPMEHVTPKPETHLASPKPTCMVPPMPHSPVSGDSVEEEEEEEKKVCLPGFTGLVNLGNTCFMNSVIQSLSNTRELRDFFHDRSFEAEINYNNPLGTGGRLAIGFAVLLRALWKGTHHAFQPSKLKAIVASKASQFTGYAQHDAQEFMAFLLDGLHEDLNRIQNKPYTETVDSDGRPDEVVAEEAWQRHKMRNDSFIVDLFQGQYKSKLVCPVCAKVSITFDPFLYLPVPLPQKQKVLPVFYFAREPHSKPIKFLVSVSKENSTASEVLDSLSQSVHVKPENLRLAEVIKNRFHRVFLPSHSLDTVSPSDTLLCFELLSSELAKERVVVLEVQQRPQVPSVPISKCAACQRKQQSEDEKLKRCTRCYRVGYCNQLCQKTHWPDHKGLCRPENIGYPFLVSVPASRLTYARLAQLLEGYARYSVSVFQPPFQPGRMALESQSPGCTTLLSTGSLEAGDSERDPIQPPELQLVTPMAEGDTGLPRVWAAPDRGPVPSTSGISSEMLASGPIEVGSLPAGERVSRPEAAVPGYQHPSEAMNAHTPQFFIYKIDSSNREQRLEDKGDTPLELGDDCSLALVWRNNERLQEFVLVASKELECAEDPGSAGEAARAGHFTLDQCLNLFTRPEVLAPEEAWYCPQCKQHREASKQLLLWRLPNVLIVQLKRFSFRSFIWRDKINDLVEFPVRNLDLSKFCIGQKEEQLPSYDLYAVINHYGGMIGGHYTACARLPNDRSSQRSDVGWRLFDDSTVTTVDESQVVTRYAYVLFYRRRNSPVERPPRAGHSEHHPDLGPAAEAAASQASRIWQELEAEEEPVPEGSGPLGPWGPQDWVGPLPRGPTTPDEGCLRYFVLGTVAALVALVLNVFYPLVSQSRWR
Assay: USP19 fluorescence polarisation (FP) homogeneous assay with Ubiquitin-Lys-TAMRA substrate
Type: biochemical
Conditions: 2.5 nM USP19, 30 min pre-incubation, average of at least two duplicate experiments
Procedure: Unless otherwise stated, all other reagents were purchased from Sigma. Enzymatic reactions were conducted in black flat bottom polystyrene 384-well plates (Nunc) and 30 μL total volume. […] Inhibitors were stored as 10 mM DMSO stocks in an inert environment (low humidity, dark, low oxygen, room temperature) using the Storage Pod System and serial dilutions were prepared in buffer just prior to the assay (from 200 μM to 2 μM, 8-18 data point curve).
Following incubation at RT for 30 min, the enzymatic reactions were initiated by dispensing the Ub substrate (500 nM, 10 μL). FP was measured every 15 min over a period of 90 min (within the linear range of the assay) using a Synergy 4 plate reader (BioTek) exciting at 530 nm and measuring the amount of parallel and perpendicular light at 575 nm. The FP signal was subsequently normalised to the no compound control.

Row | IC50 [µM] | SMILES
1 | 0.5 to 5 | C[C@H](CC1CCCCC1)C(=O)N1CCC(O)(CN2CC(Cc3ccccc3)CC2=O)C2(CCCC2)C1 (stereo partly drawn) [Example 41, 4-Benzyl-1-((7-((R)-3-cyclohexyl-2-methylpropanoyl)-10-hydroxy-7-azaspiro[4.5]decan-10-yl)methyl)pyrrolidin-2-one]
2 | 50 to 250 | CC(CC1CCCCC1)C(=O)N1CCC(O)(CN2C(=O)c3ccccc3C2=O)C(C)(C)C1 (centres unmarked) [Example 42, 2-((1-(3-Cyclohexyl-2-methylpropanoyl)-4-hydroxy-3,3-dimethylpiperidin-4-yl)methyl)isoindoline-1,3-dione]
3 | 50 to 250 | CC(Cc1ccccc1)C(=O)N1CCC(O)(CN2CC(Cc3ccccc3)CC2=O)C(C)(C)C1 (centres unmarked) [Example 44, 4-Benzyl-1-((4-hydroxy-3,3-dimethyl-1-(2-methyl-3-phenylpropanoyl)piperidin-4-yl)methyl)pyrrolidin-2-one]
4 | 50 to 250 | CC1(C)CN(C(=O)CCC2CCCCC2)CCC1(O)CN1CC(Cc2ccccc2)CC1=O (centres unmarked) [Example 45, 4-Benzyl-1-((1-(3-cyclohexylpropanoyl)-4-hydroxy-3,3-dimethylpiperidin-4-yl)methyl)pyrrolidin-2-one]
5 | 50 to 250 | CC(CC1CCCCC1)C(=O)N1CCC(O)(CN2CC3(CCCCC3)CC2=O)C(C)(C)C1 (centres unmarked) [Example 46, 2-((1-(3-Cyclohexyl-2-methylpropanoyl)-4-hydroxy-3,3-dimethylpiperidin-4-yl)methyl)-2-azaspiro[4.5]decan-3-one]
6 | < 0.5 | CC(=O)N1CCN(CC2(O)CCN(C(=O)[C@H](C)CC3CCCCC3)CC23CCCC3)C(=O)C1 (stereo partly drawn) [Example 48, 4-Acetyl-1-((7-((R)-3-cyclohexyl-2-methylpropanoyl)-10-hydroxy-7-azaspiro[4.5]decan-10-yl)methyl)piperazin-2-one]
7 | 0.5 to 5 | C[C@H](CC1CCCCC1)C(=O)N1CCC(O)(CN2CCN(S(C)(=O)=O)CC2=O)C2(CCCC2)C1 (stereo partly drawn) [Example 49, 1-((7-((R)-3-Cyclohexyl-2-methylpropanoyl)-10-hydroxy-7-azaspiro[4.5]decan-10-yl)methyl)-4-(methylsulfonyl)piperazin-2-one]
8 | < 0.5 | C[C@H](CC1CCCCC1)C(=O)N1CCC(O)(CN2CCN(c3ccccc3)CC2=O)C2(CCCC2)C1 (stereo partly drawn) [Example 50, 1-((7-((R)-3-Cyclohexyl-2-methylpropanoyl)-10-hydroxy-7-azaspiro[4.5]decan-10-yl)methyl)-4-phenylpiperazin-2-one]
9 | 5 to 50 | C[C@H](CC1CCCCC1)C(=O)N1CCC(O)(Cn2nc3ccccn3c2=O)C(C)(C)C1 (stereo partly drawn) [Example 51, 2-((1-((R)-3-Cyclohexyl-2-methylpropanoyl)-4-hydroxy-3,3-dimethylpiperidin-4-yl)methyl)-[1,2,4]triazolo[4,3-a]pyridin-3(2H)-one]
10 | 5 to 50 | C[C@H](CC1CCCCC1)C(=O)N1CCC(O)(Cn2cnc3[nH]ccc3c2=O)C2(CCCC2)C1 (stereo partly drawn) [Example 53, 3-((7-((R)-3-Cyclohexyl-2-methylpropanoyl)-10-hydroxy-7-azaspiro[4.5]decan-10-yl)methyl)-3,7-dihydro-4H-pyrrolo[2,3-d]pyrimidin-4-one]
11 | < 0.5 | CSc1ncc2c(=O)n(CC3(O)CCN(C(=O)[C@H](C)CC4CCCCC4)CC34CCCC4)ccc2n1 (stereo partly drawn) [Example 55, 6-((7-((R)-3-Cyclohexyl-2-methylpropanoyl)-10-hydroxy-7-azaspiro[4.5]decan-10-yl)methyl)-2-(methylthio)pyrido[4,3-d]pyrimidin-5(6H)-one]
12 | < 0.5 | CSc1ncc2c(=O)n(CC3(O)CCN(C(=O)[C@H](C)CC(F)(F)F)CC34CCCC4)ccc2n1 (stereo partly drawn) [Example 56, 6-((10-Hydroxy-7-((R)-4,4,4-trifluoro-2-methylbutanoyl)-7-azaspiro[4.5]decan-10-yl)methyl)-2-(methylthio)pyrido[4,3-d]pyrimidin-5(6H)-one]
13 | 0.5 to 5 | C[C@H](CC(F)(F)F)C(=O)N1CCC(O)(Cn2ccc3nc(N=S(C)(C)=O)ncc3c2=O)C2(CCCC2)C1 (stereo partly drawn) [Example 62, 2-((Dimethyl(oxo)-λ^6-sulfaneylidene)amino)-6-((10-hydroxy-7-((R)-4,4,4-trifluoro-2-methylbutanoyl)-7-azaspiro[4.5]decan-10-yl)methyl)pyrido[4,3-d]pyrimidin-5(6H)-one]

More lines, now with the values behind:

Row | SMILES | IC50 [µM]
14 | CC(CC1CCCCC1)C(=O)N1CCC(O)(CN2CC(Cc3ccccc3)CC2=O)CC1 (centres unmarked) [Example 43, 4-Benzyl-1-((1-(3-cyclohexyl-2-methylpropanoyl)-4-hydroxypiperidin-4-yl)methyl)pyrrolidin-2-one] | 5 to 50
15 | C[C@H](CC1CCCCC1)C(=O)N1CCC(O)(CN2CCN(C(=O)OCc3ccccc3)CC2=O)C2(CCCC2)C1 (stereo partly drawn) [Example 47, Benzyl 4-((7-((R)-3-cyclohexyl-2-methylpropanoyl)-10-hydroxy-7-azaspiro[4.5]decan-10-yl)methyl)-3-oxopiperazine-1-carboxylate] | 0.5 to 5
16 | COc1cc2ncn(CC3(O)CCN(C(=O)[C@H](C)CC4CCCCC4)CC34CCCC4)c(=O)c2cc1OC (stereo partly drawn) [Example 52, 3-((7-((R)-3-Cyclohexyl-2-methylpropanoyl)-10-hydroxy-7-azaspiro[4.5]decan-10-yl)methyl)-6,7-dimethoxyquinazolin-4(3H)-one] | 0.5 to 5
17 | CSc1ncc2c(=O)n(CC3(O)CCN(C(=O)[C@H](C)CC4CCCCC4)CC34CCCC4)n(C)c2n1 (stereo partly drawn) [Example 54, 2-((7-((R)-3-Cyclohexyl-2-methylpropanoyl)-10-hydroxy-7-azaspiro[4.5]decan-10-yl)methyl)-1-methyl-6-(methylthio)-1,2-dihydro-3H-pyrazolo[3,4-d]pyrimidin-3-one] | < 0.5
18 | CNc1ncc2c(=O)n(CC3(O)CCN(C(=O)[C@H](C)CC(F)(F)F)CC34CCCC4)ccc2n1 (stereo partly drawn) [Example 57, 6-((10-Hydroxy-7-((R)-4,4,4-trifluoro-2-methylbutanoyl)-7-azaspiro[4.5]decan-10-yl)methyl)-2-(methylamino)pyrido[4,3-d]pyrimidin-5(6H)-one] | 0.5 to 5
19 | C[C@H](CC(F)(F)F)C(=O)N1CCC(O)(Cn2ccc3nc(N(C)C)ncc3c2=O)C2(CCCC2)C1 (stereo partly drawn) [Example 58, 2-(Dimethylamino)-6-((10-hydroxy-7-((R)-4,4,4-trifluoro-2-methylbutanoyl)-7-azaspiro[4.5]decan-10-yl)methyl)pyrido[4,3-d]pyrimidin-5(6H)-one] | 0.5 to 5
20 | COc1ncc2c(=O)n(CC3(O)CCN(C(=O)[C@H](C)CC(F)(F)F)CC34CCCC4)ccc2n1 (stereo partly drawn) [Example 59, 6-((10-Hydroxy-7-((R)-4,4,4-trifluoro-2-methylbutanoyl)-7-azaspiro[4.5]decan-10-yl)methyl)-2-methoxypyrido[4,3-d]pyrimidin-5(6H)-one] | 5 to 50
21 | C[C@H](CC(F)(F)F)C(=O)N1CCC(O)(Cn2ccc3nc(N4CCOCC4)ncc3c2=O)C2(CCCC2)C1 (stereo partly drawn) [Example 60, 6-((10-Hydroxy-7-((R)-4,4,4-trifluoro-2-methylbutanoyl)-7-azaspiro[4.5]decan-10-yl)methyl)-2-morpholinopyrido[4,3-d]pyrimidin-5(6H)-one] | 0.5 to 5
22 | C[C@H](CC(F)(F)F)C(=O)N1CCC(O)(Cn2ccc3nc(N4CCN(C)CC4)ncc3c2=O)C2(CCCC2)C1 (stereo partly drawn) [Example 61, 6-((10-Hydroxy-7-((R)-4,4,4-trifluoro-2-methylbutanoyl)-7-azaspiro[4.5]decan-10-yl)methyl)-2-(4-methylpiperazin-1-yl)pyrido[4,3-d]pyrimidin-5(6H)-one] | 0.5 to 5
23 | C[C@H](CC(F)(F)F)C(=O)N1CCC(O)(Cn2ccc3nc(N4CCNCC4)ncc3c2=O)C2(CCCC2)C1 (stereo partly drawn) [Example 63, 6-((10-Hydroxy-7-((R)-4,4,4-trifluoro-2-methylbutanoyl)-7-azaspiro[4.5]decan-10-yl)methyl)-2-(piperazin-1-yl)pyrido[4,3-d]pyrimidin-5(6H)-one] | 0.5 to 5

— patent US20220033397A1, “PHARMACEUTICAL COMPOUNDS AND THEIR USE AS INHIBITORS OF UBIQUITIN SPECIFIC PROTEASE 19 (USP19)” (ALMAC DISCOVERY LIMITED, priority 2018, published 2022)
